# Measurements from article PMC8802628, “Selective activation of PFKL suppresses the phagocytic oxidative burst” (Cell, 2021).
# Several values for one entry are separate records, joined by “and”; a condition that tells them apart may be missing. Identical values can stand only once.
# Key:
# [1] = target: T1, PFKL(V545L, V582M) (PFKL−hook) (Homo sapiens, UniProt P17858, V545L/V582M); assay: Recombinant PFKL−hook activity assay; type: biochemical; settings: for EC50: pH 7.5, 3.1 mM ATP, 2.5 mM F6P, mean ± SEM, read-out: EC50, activation of PFKL−hook
# T1 construct: made in house; host or cells: Sf9 insect cells (baculovirus)
# T1 sequence (P17858 1-780 V545L/V582M): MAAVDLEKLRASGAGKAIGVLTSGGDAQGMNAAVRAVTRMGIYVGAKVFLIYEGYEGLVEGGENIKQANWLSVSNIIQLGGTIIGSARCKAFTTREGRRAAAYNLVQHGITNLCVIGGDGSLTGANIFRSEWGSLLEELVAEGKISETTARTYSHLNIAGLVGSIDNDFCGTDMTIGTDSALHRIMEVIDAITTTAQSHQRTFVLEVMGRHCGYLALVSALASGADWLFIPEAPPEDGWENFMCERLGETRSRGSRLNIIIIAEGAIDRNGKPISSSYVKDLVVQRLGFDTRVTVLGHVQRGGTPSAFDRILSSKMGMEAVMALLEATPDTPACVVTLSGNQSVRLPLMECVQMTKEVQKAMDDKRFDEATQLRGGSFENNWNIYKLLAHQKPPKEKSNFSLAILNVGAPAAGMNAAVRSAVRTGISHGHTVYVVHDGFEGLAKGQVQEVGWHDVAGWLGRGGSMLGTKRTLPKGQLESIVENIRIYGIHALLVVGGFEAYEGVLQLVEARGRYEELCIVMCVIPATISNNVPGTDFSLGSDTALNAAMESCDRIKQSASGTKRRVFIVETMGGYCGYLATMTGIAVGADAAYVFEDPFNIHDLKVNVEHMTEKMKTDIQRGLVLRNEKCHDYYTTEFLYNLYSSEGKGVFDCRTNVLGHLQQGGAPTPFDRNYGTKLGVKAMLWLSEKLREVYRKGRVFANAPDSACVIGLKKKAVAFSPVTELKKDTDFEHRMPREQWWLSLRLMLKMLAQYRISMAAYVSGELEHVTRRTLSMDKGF
# Text: Recombinant N-terminal His-tagged human PFKL (NP_002617), PFKM (NP_000280), and PFKP (NM_002627.4) were generated as described ([Webb et al., 2015], [2017]). Point mutants of PFK1 were generated using the QuikChange Lightning kit (Aligent).
# His-tagged PFK1 was expressed and purified as described with slight modifications ([Webb et al., 2015], [2017]). Briefly, baculovirus was generated using the Bac-to-Bac Expression system (Invitrogen). PFK1 was expressed in 2-5 × 10^6 sf9 cells at a multiplicity of infection of two for 48 h. Cells were lysed in 20 mM HEPES, pH 7.5, 80 mM potassium phosphate, 1 mM 2-mercapentoethanol, 10% glycerol, 10 mM imidazole, and EDTA-free Protease Inhibitor Cocktail (Abcam) with a Dounce homogenizer. The soluble lysate was incubated with HisPur cobalt resin (ThermoFisher Scientific). The resin was washed with 5 bead volumes lysis buffer, 10 bead volumes lysis buffer containing 2 M NaCl, and 5 further bead volumes lysis buffer. PFK1 was eluted in lysis buffer containing 100 mM imidazole. Fractions containing protein were pooled, passed over a desalting column equilibrated in freezing buffer [20 mM HEPES pH 7.5, 1 mM DTT, 500 μM ammonium sulfate, 5% glycerol, 1 mM ATP, and 100 μM EDTA] and concentrated using an Amicon Ultracel-30K Centrifugal Filter Unit (MilliporeSigma). Protein was quantified using a Bradford Protein Assay kit (ThermoFisher Scientific), and aliquotes frozen in liquid nitrogen for storage at −80°C.
# PFK1 activity was determined using the rate of FBP production via an auxiliary enzyme assay adapted to a 96-well format ([Brüser et al., 2012]; [Webb et al., 2015]). The auxiliary enzymes aldolase, triosephosphate isomerase, and glycerol phosphate dehydrogenase were purchased from MilliporeSigma as ammonium sulfate slurries and desalted using an Amicon Ultracel-10K Centrifugal Filter Unit. For assays containing FBP, the rate of ADP production was determined using the auxiliary enzymes pyruvate kinase (PK) and lactate dehydrogenase (LDH) (MilliporeSigma) in a buffer containing 250 μM phosphoenolpyruvic acid, […] NADH, 50 mM HEPES pH 7.5, 100 mM KCl, 1 mM DTT, and effector concentrations as described in the text. The temperature was equilibrated to 25°C for 5 min before initiating the reaction 10 mM MgCl2. Absorbance at 340 nm was measured using a Varioskan LUX Multimode microplate reader (ThermoFisher). Kinetic parameters were generated by nonlinear regression analysis using Prism (GraphPad Software) and are the mean of a minimum of three measurements from two independent preparations of protein. One unit of activity was defined as the amount of enzyme that catalyzed the formation of 1 μmol of fructose 1,6-bisphosphate per min at 25°C. […]
# [2] = test system: human peripheral blood neutrophils; assay: NETosis assay in human neutrophils (SYTOX Green, DNA area); type: cell-based; settings: for inhibition of PMA-induced NETosis: SAR analogs compared to LDC7559; for fold more potent than LDC7559, inhibition of NETosis: compared to LDC7559
# Method: Freshly purified neutrophils were plated at 6 × 10^3 cells/well in glass bottom 96-well plates (SensoPlate, Greiner Bio-One 82050-792) in the RPMI medium described above. Cells were pretreated with DMSO vehicle, 0.5 μM NA-11, 100 μM apocynin, 0.5 μM and 5 μM PALP, or 0.5 μM and 5 μM LDC7559 for 30 min, and then stimulated with 50 nM PMA, 1 μM f-MLP, 5 μg/mL cholesterol crystals, 10 μg/mL LPS, 25 μM nigericin, or 25 μM calcymicin (A23187) for 3 h (except in Figures S1A, 6A and S7C, where cells were stimulated for 4 h). Cells were fixed and permeabilized in 2.5% paraformaldehyde (PFA) and 0.02% Triton X-100 in PBS for 30 min. For quantification of NETosis, cells were stained with 150 nM SYTOX Green and imaged in a KEYENCE Fluorescence Microscope (KEYENCE, ZB-X800E) at 10 x magnification. For immunolabeling, fixed cells were blocked with 2% BSA for 1 h, and then stained with anti-CitH3 and anti-MPO antibodies at a dilution of 1/200 in 1% BSA in PBS. Images were taken at 60 x magnification using an ImageXpress Micro Confocal high-content imaging system (Molecular Devices).
# Semi-automated analysis of both phase and fluorescence images of SYTOX Green-stained neutrophils used a specialized MATLAB algorithm. Total cells were counted by scoring phase standard deviation and radial symmetry. NETosis was classified in cells by measuring the DNA area in the fluorescence image and comparing with a select internal training set for each experiment. Unstimulated cells and PMA-stimulated, […] cells served as negative controls. PMA-stimulated cells served as a positive control. NET-forming cells are presented as a percentage of total cells.
SMILES,inhibition of PMA-induced NETosis ([2]; PMA),EC50 [1],"fold more potent than LDC7559, inhibition of NETosis [2]",other results
"O=C(CO)[C@@H](O)[C@H](O)[C@H](O)COP(=O)(O)O [F6P, fructose 6-phosphate]",–,–,–,"Vmax,F6P ([1]; PFKL−hook, pH 7.5, 225 μM ATP): 11.50 ± 0.57 micromoles FBP per minute per milligram PFK1; hF6P (Hill coefficient) ([1]; PFKL−hook, pH 7.5, 225 μM ATP): 2.87 ± 0.50"
"COc1ccccc1-c1cc2n(n1)Cc1ccc(NC(C)=O)cc1OC2 [LDC7559, reference compound]",inhibited PMA-induced NETosis in a dose-dependent manner,–,–,ability to inhibit NETosis (activity range) ([2]; neutrophils): low-micromolar range; spontaneous NETosis ([2]; no stimulus): did not prevent spontaneous NETosis
CC(=O)Nc1ccc2c(c1)OCc1cc(-c3ccccc3)nn1C2 [NA-5],–,18.1 ± 3.19 nM,~ 10 fold,–
CC(=O)Nc1ccc2c(c1)OCc1cc(-c3ccccc3C#CCCCO)nn1C2 [NA-11],inhibiting NOX2-dependent NETosis induced by PMA,53.3 ± 5.77 nM,"~ 1,000 fold and 1,000 fold","NOX2-dependent NETosis induced by fMLP, LPS, and cholesterol crystals ([2]; 0.5 μM, 4 h stimulation): inhibited NOX2-dependent NETosis; IC50 ([2]; human PMNs, PMA, read-out: IC50, inhibition of PMA-induced NETosis): 4 ± 0.5 nM"
